The target of data set [1] is T1, human calcitonin receptor (hCTR) (Homo sapiens, UniProt P30988).
T1 construct: expressed in transfected cells
T1 sequence (P30988 25-474): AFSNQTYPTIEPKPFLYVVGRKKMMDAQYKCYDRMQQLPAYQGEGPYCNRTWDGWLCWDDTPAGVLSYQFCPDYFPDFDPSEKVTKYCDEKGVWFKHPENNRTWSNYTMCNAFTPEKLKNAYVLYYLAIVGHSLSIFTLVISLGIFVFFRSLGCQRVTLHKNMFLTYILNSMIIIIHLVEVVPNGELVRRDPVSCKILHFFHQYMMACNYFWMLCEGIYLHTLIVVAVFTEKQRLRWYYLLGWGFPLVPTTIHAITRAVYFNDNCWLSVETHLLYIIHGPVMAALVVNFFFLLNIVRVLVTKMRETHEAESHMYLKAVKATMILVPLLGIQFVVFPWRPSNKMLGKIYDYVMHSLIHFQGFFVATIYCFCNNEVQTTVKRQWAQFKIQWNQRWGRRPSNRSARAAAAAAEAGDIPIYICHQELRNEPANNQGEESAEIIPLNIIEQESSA
Kind of data set: cAMP production in 1321N1 cells with stable recombinant expression of human calcitonin receptor (hCTR). The data set is classed as cell-based. As to conditions: cAMP, 1321N1 cells, assay buffer with 0.1% BSA; read-out: EC50 (pM) hCTR. In a few lines:
(§1)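 Thawed cells in HBSS/0.1% BSA/25 mM HEPES pH 7.4 with 0.5 mM IBMX were incubated with peptides 30 min at room temperature; cAMP read by HTRF. EC50 from 4-parameter fit of % activation relative to maximal amylin or calcitonin effect.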

The nature of data set [2]: Thioflavin T fibrillation assay. As to conditions: for Time taken to detect increase in fluorescence intensity: ThT fibrillation assay, peptide 1 mg/mL in 25 mM sodium acetate buffer pH 4.0, 6 days at 37 °C with shaking, >144 h = no increase; for fibril-forming tendency: ThT assay, 1 mg/mL, pH 4.0, 37 °C, compared to pramlintide. The data set is classed as physicochemical. The method, boiled down:
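Peptides at 1 mg/mL in 25 mM sodium acetate pH 4.0 with ThT (from 0.25 mM stock), incubated 6 days at 37 °C with intermittent orbital shaking at 500–750 rpm. Fluorescence (ex 444/em 480 nm) read every 30 min; value is average time to a rise in baseline-corrected signal.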

Data set [3] has as its target T2, human amylin receptor (calcitonin receptor co-expressed with receptor activity modifying protein, RAMP3) (hAMYR3) (Homo sapiens, UniProt O60896+P30988).
T2 construct: expressed in transfected cells
T2 sequence (P30988 25-474): T1 sequence (P30988 25-474)
T2 sequence (O60896 24-148 partner): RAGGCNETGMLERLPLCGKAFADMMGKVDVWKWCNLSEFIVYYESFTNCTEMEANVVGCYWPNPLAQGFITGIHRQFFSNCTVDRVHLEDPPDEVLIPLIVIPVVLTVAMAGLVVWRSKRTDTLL
The data set is described as follows: cAMP production in 1321N1 cells with stable recombinant expression of human amylin receptor (hAMYR3). The data set is classed as cell-based. The conditions noted are these: for Ratio (selectivity hAMYR vs hCTR, ratio of EC50 values at the two receptors): EC50 hCTR / EC50 hAMYR3; for EC50: cAMP, 1321N1 cells, assay buffer with 0.1% BSA, read-out: EC50 (pM) hAMYR3. In a few lines:
as §1

The next data set can be described thus: in vivo. The conditions noted are these: male, Sprague-Dawley, rat, 20 nmol/kg.

Numbered stars: 1 amine (or outer) side, 2 acyl side, 3 side chain; on linkers, the order of the positions; unused ones are H or OH. Bridge positions count the residues as written; N and C are the ends. Square brackets hold non-standard residues; d marks the D form. Side chains are listed from the residue outwards. Peptide text beside a SMILES is read from it. * marks the point of attachment. C18 diacid = O=C(O)CCCCCCCCCCCCCCCCC(=O)*; γGlu = O=C(O)[C@H](CCC(=O)[*:2])N[*:1]; αMeF = C[C@](N)(Cc1ccccc1)C(=O)O; AEEA = NCCOCCOCC(=O)O; Aib = CC(C)(N)C(=O)O A value given as a limit tells only on which side of the number the result lay.

Here are results for 4 molecules from patent US20240067693A1, “POLYPEPTIDES AND USES THEREOF” (MEDIMMUNE LIMITED, priority 2020, published 2024).

Regarding `CC[C@H](C)[C@H](NC(=O)[C@@H]1CCCN1C(=O)CNC(=O)[C@](C)(Cc1ccccc1)NC(=O)[C@H](CC(N)=O)NC(=O)[C@H](CC(N)=O)NC(=O)[C@H](CO)NC(=O)[C@H](CO)NC(=O)[C@H](Cc1c[nH]cn1)NC(=O)[C@@H](NC(=O)[C@H](CC(C)C)NC(=O)[C@H](Cc1ccccc1)NC(=O)[C@H](CC(N)=O)NC(=O)[C@H](C)NC(=O)[C@H](CC(C)C)NC(=O)[C@H](CCCNC(=N)N)NC(=O)[C@H](CCC(N)=O)NC(=O)[C@@H](NC(=O)[C@H](C)NC(=O)[C@@H]1CSSC[C@H](NC(=O)[C@@H](N)CCCCNC(=O)CC[C@H](NC(=O)CCCCCCCCCCCCCCCCC(=O)O)C(=O)O)C(=O)N[C@@H](CC(N)=O)C(=O)N[C@@H]([C@@H](C)O)C(=O)N[C@@H](C)C(=O)N[C@@H]([C@@H](C)O)C(=O)N1)[C@@H](C)O)C(C)C)C(=O)N[C@@H](CC(C)C)C(=O)N1CCC[C@H]1C(=O)N1CCC[C@H]1C(=O)N[C@H](C(=O)N[C@@H](CCCNC(=N)N)C(=O)N[C@H](C(=O)NCC(=O)N[C@@H](CO)C(=O)N[C@@H](CC(N)=O)C(=O)N[C@H](C(=O)N[C@@H](Cc1ccc(O)cc1)C(N)=O)[C@@H](C)O)C(C)C)[C@@H](C)O` [Peptide 25, K(γE-C18diacid)[CNTATC]ATQRLANFLVHSSNN(αMePhe)GPILPPTRVGSNTY-amide] (H-K([γGlu-C18 diacid])CNTATCATQRLANFLVHSSNN[αMeF]GPILPPTRVGSNTY-NH2; disulfide 2-7), the EC50 in data set [1] came out at 1250 pM; in data set [3] it was 105 pM. For the same molecule, the “Time taken to detect increase in fluorescence intensity” value (from here on “Time taken to detect increase”) in data set [2] is reported as greater than 144 h. The “Ratio (selectivity hAMYR vs hCTR, ratio of EC50 values at the two receptors)” value in data set [3] is on record as 12. The values for the half-life in the data set “in vivo” (iv) and in the data set “in vivo” (sc) were 6.9 h and 8 h, respectively.
As for `CC[C@H](C)[C@H](NC(=O)[C@@H]1CCCN1C(=O)CNC(=O)[C@H](Cc1ccccc1)NC(=O)[C@H](CC(N)=O)NC(=O)[C@H](CC(N)=O)NC(=O)[C@H](CO)NC(=O)[C@H](CO)NC(=O)[C@H](Cc1c[nH]cn1)NC(=O)[C@@H](NC(=O)[C@H](CC(C)C)NC(=O)[C@H](Cc1ccccc1)NC(=O)[C@H](CC(N)=O)NC(=O)[C@H](C)NC(=O)[C@H](CC(C)C)NC(=O)[C@H](CCCNC(=N)N)NC(=O)[C@H](CCC(N)=O)NC(=O)[C@@H](NC(=O)[C@H](C)NC(=O)[C@@H]1CSSC[C@H](NC(=O)[C@@H](N)CCCCNC(=O)COCCOCCNC(=O)COCCOCCNC(=O)CC[C@H](NC(=O)CCCCCCCCCCCCCCCCC(=O)O)C(=O)O)C(=O)N[C@@H](CC(N)=O)C(=O)N[C@@H]([C@@H](C)O)C(=O)N[C@@H](C)C(=O)N[C@@H]([C@@H](C)O)C(=O)N1)[C@@H](C)O)C(C)C)C(=O)N[C@@H](CC(C)C)C(=O)N1CCC[C@H]1C(=O)N1CCC[C@H]1C(=O)N[C@H](C(=O)N[C@@H](CC(N)=O)C(=O)N[C@H](C(=O)NCC(=O)N[C@@H](CO)C(=O)N[C@@H](CC(N)=O)C(=O)N[C@H](C(=O)N[C@@H](Cc1ccc(O)cc1)C(N)=O)[C@@H](C)O)C(C)C)[C@@H](C)O` [Peptide 6] (H-K([AEEA-AEEA-γGlu-C18 diacid])CNTATCATQRLANFLVHSSNNFGPILPPTNVGSNTY-NH2; disulfide 2-7; N-terminus assumed), in data set [1], the concentration for a half-maximal effect (EC50) worked out at 310 pM. Further, in data set [2], the fibril-forming tendency entry was “increases the fibril-forming tendency” and the “Time taken to detect increase” value is 15 h. Further, in data set [3], the “Ratio (selectivity hAMYR vs hCTR, ratio of EC50 values at the two receptors)” value is given as 5 and the EC50 worked out at 68 pM. The half-life in the data set “in vivo” (iv) is 9.5 h. Besides, in the data set “in vivo” (sc), the half-life was 17.6 h.
`CC[C@H](C)[C@H](NC(=O)[C@@H]1CCCN1C(=O)CNC(=O)[C@H](Cc1ccccc1)NC(=O)[C@H](CC(N)=O)NC(=O)[C@H](CC(N)=O)NC(=O)[C@H](CO)NC(=O)[C@H](CO)NC(=O)[C@H](Cc1c[nH]cn1)NC(=O)[C@@H](NC(=O)[C@H](CC(C)C)NC(=O)[C@H](Cc1ccccc1)NC(=O)[C@H](CC(N)=O)NC(=O)[C@H](C)NC(=O)[C@H](CC(C)C)NC(=O)[C@H](CCCNC(=N)N)NC(=O)[C@H](CCC(N)=O)NC(=O)[C@@H](NC(=O)[C@H](C)NC(=O)[C@@H]1CSSC[C@H](NC(=O)[C@H](CCCCN)NC(=O)CNC(=O)CNC(=O)CNC(=O)CC[C@H](NC(=O)CC[C@H](NC(=O)CCCCCCCCCCCCCCCCC(=O)O)C(=O)O)C(=O)O)C(=O)N[C@@H](CC(N)=O)C(=O)N[C@@H]([C@@H](C)O)C(=O)N[C@@H](C)C(=O)N[C@@H]([C@@H](C)O)C(=O)N1)[C@@H](C)O)C(C)C)C(=O)N[C@@H](CC(C)C)C(=O)N1CCC[C@H]1C(=O)N1CCC[C@H]1C(=O)N[C@H](C(=O)N[C@@H](CC(N)=O)C(=O)N[C@H](C(=O)NCC(=O)N[C@@H](CO)C(=O)N[C@@H](CC(N)=O)C(=O)N[C@H](C(=O)N[C@@H](Cc1ccc(O)cc1)C(N)=O)[C@@H](C)O)C(C)C)[C@@H](C)O` [Peptide 4] ({C18 diacid-γGlu-γGlu}-GGGKCNTATCATQRLANFLVHSSNNFGPILPPTNVGSNTY-NH2; disulfide 5-10): the EC50 in data set [1] was found to be 7530 pM. In data set [2], the fibril-forming tendency result is given as “increases the fibril-forming tendency” and the “Time taken to detect increase” value was less than 5 h. Besides, in data set [3], the “Ratio (selectivity hAMYR vs hCTR, ratio of EC50 values at the two receptors)” value came to 30 and the concentration giving a half-maximal response (EC50) amounted to 248 pM. Further, the half-life in “in vivo” (iv) is 12 h. Also, the half-life in the data set “in vivo” (sc) was 12 h.
Turning to `CC[C@H](C)[C@H](NC(=O)[C@@H]1CCCN1C(=O)CNC(=O)[C@H](Cc1ccccc1)NC(=O)[C@H](CC(N)=O)NC(=O)C(C)(C)NC(=O)[C@H](CO)NC(=O)[C@H](CO)NC(=O)[C@H](Cc1c[nH]cn1)NC(=O)[C@@H](NC(=O)[C@H](CC(C)C)NC(=O)[C@H](Cc1ccccc1)NC(=O)[C@H](CC(N)=O)NC(=O)[C@H](C)NC(=O)[C@H](CC(C)C)NC(=O)[C@H](CCCNC(=N)N)NC(=O)[C@H](CCC(N)=O)NC(=O)[C@@H](NC(=O)[C@H](C)NC(=O)[C@@H]1CSSC[C@H](NC(=O)[C@H](CCCCN)NC(=O)[C@@H](N)CCCCNC(=O)CC[C@H](NC(=O)CCCCCCCCCCCCCCCCC(=O)O)C(=O)O)C(=O)N[C@@H](CC(N)=O)C(=O)N[C@@H]([C@@H](C)O)C(=O)N[C@@H](C)C(=O)N[C@@H]([C@@H](C)O)C(=O)N1)[C@@H](C)O)C(C)C)C(=O)N[C@@H](CC(C)C)C(=O)N1CCC[C@H]1C(=O)N1CCC[C@H]1C(=O)N[C@H](C(=O)N[C@@H](CCCNC(=N)N)C(=O)N[C@H](C(=O)NCC(=O)N[C@@H](CO)C(=O)N[C@@H](CC(N)=O)C(=O)N[C@H](C(=O)N[C@@H](Cc1ccc(O)cc1)C(N)=O)[C@@H](C)O)C(C)C)[C@@H](C)O` [Peptide 69, K(γE-C18diacid)K[CNTATC]ATQRLANFLVHSS(Aib)NFGPILPPTRVGSNTY-amide] (H-K([γGlu-C18 diacid])KCNTATCATQRLANFLVHSS[Aib]NFGPILPPTRVGSNTY-NH2; disulfide 3-8), the EC50 in data set [1] was 1570 pM; in data set [3], 164 pM. For the same molecule, in data set [3], the “Ratio (selectivity hAMYR vs hCTR, ratio of EC50 values at the two receptors)” value was 10. The half-life is 6.3 h in the data set “in vivo” (iv) and 8.5 h in the data set “in vivo” (sc).
